The values that follow come from US10786570B2, “Ferritin nanoparticle compositions and methods to modulate cell activity” (The Rockefeller University, priority 2011, dated 2020).

Common to all, as to type: cell-based
For test [1], the system named is HEK 293T cells transfected with TRPV1, BAPTM and calcium dependent human insulin. The test can be described thus: RF dependent insulin gene expression, dual component system. Particulars: ruthenium red, TRPV1 BAP system. The procedure:
(§1) RF dependent release of calcium dependent human insulin: 24 h prior to the study, cells were placed in serum free medium at 32° C. to ensure minimal activation of TRPV1 and calcium dependent pathways. On the day of study, cells were preincubated for 30 min in 500 μl PBS or 500 μl of functionalized iron oxide nanoparticles (1 mg/ml) resuspended in PBS. Cells were washed three times in PBS before incubation in 300 μl of calcium imaging buffer at room temperature (control) or in a RF field at room temperature. The supernatant was removed at 15, 30, 45 or 60 min depending on the study, spun to remove cell debris and frozen at −80° C. until assay. For gene expression analysis, cells from the supernatant and cover glass were lysed and the lysate stored at […] until RNA purification. For apoptosis studies, the cells were incubated with functionalized nanoparticles at 1, 2, 4 or 8 mg/ml before RF treatment and immunocytochemistry. For RF dependent time course from stable PC12 cells, cells were left in serum containing medium prior to treatment to more accurately replicate conditions in vivo before performing the studies as described above. Medium was removed for assay at 15 and 30 mins.
(§2) For studies examining the role of TRP channels in RF mediated proinsulin release, ruthenium red (100 μM) was added to the calcium imaging buffer. […]

Test [2] has as its system HEK 293T cells expressing TRPV1^His and Ca2+-dependent human insulin construct. In words: RF dependent insulin gene expression (real-time PCR). Particulars: ruthenium red. The procedure: as §1, §2
A general note: Quantitative PCR measures a nucleic acid by following its amplification.

The test system of test [3] is HEK 293T cells transfected with TRPV1, BAPTM and calcium dependent human insulin. In words: RF dependent proinsulin release, dual component system. The settings on record: ruthenium red, TRPV1 BAP system. The procedure: as §1, with “For RF dependent time course from stable PC12 cells, cells were left in serum containing medium prior to treatment to more accurately replicate conditions in vivo before performing the studies as described above. Medium was removed for assay at 15 and 30 mins.” left out
(§3) Assays. Proinsulin was measured in cell supernatants by ELISA (Alpco, Salem, N.H.) according to manufacturer's protocol. Blood glucose was determined using a Breeze 2 glucometer (Bayer; Leverkusen, Germany). […] Plasma levels of human insulin, produced by xenografts, were determined in mouse plasma by human specific ELISA (Alpco).

Test [4] has as its system HEK 293T cells expressing TRPV1^His and Ca2+-dependent human insulin construct. The test can be described thus: RF dependent proinsulin release (ELISA). The procedure: as §1, with “For RF dependent time course from stable PC12 cells, cells were left in serum containing medium prior to treatment to more accurately replicate conditions in vivo before performing the studies as described above. Medium was removed for assay at 15 and 30 mins.” left out
as §3

Regarding `N.N.N.N.N.N.N.N.N.N.N.N.N.N.[Cl-].[Cl-].[Cl-].[Cl-].[Cl-].[Cl-].[O-2].[O-2].[Ru+3].[Ru+3].[Ru+4]` [ruthenium red], the “Effect on RF dependent insulin gene expression” value in test [1] and in test [2] was “blocked” throughout. For the same compound, the “Effect on RF dependent proinsulin release” value in test [3] and in test [4] (ruthenium red 100 μM in calcium imaging buffer) was “blocked” each time.
`C=CC[C@@H]1/C=C(\C)C[C@H](C)C[C@H](OC)[C@H]2O[C@@](O)(C(=O)C(=O)N3CCCC[C@H]3C(=O)O[C@H](/C(C)=C/[C@@H]3CC[C@@H](O)[C@H](OC)C3)[C@H](C)[C@@H](O)CC1=O)[C@H](C)C[C@@H]2OC` [tacrolimus, Tacrolimus]: the “Effect on RF dependent proinsulin release” value in test [4] (Tacrolimus 100 nM, preincubation 24 hours) was “blocked”.
